Assay results taken from patent US20240269139A1, “COMPOUNDS FOR TARGETED PROTEIN DEGRADATION OF KINASES” (DANA-FARBER CANCER INSTITUTE, INC., priority 2020, published 2024).

Tests used:
[1] = biological target: protein kinases (human kinome) (Homo sapiens, UniProt P06493); assay type: cell-based; details: CDK1 P06493; experiment wp117
[2] = biological target: T1, protein kinases (human kinome) (Homo sapiens, UniProt Q9UIG0); assay type: cell-based; details: BAZ1B (Q9UIG0); experiment wp080
T1 sequence (Q9UIG0 1-1483): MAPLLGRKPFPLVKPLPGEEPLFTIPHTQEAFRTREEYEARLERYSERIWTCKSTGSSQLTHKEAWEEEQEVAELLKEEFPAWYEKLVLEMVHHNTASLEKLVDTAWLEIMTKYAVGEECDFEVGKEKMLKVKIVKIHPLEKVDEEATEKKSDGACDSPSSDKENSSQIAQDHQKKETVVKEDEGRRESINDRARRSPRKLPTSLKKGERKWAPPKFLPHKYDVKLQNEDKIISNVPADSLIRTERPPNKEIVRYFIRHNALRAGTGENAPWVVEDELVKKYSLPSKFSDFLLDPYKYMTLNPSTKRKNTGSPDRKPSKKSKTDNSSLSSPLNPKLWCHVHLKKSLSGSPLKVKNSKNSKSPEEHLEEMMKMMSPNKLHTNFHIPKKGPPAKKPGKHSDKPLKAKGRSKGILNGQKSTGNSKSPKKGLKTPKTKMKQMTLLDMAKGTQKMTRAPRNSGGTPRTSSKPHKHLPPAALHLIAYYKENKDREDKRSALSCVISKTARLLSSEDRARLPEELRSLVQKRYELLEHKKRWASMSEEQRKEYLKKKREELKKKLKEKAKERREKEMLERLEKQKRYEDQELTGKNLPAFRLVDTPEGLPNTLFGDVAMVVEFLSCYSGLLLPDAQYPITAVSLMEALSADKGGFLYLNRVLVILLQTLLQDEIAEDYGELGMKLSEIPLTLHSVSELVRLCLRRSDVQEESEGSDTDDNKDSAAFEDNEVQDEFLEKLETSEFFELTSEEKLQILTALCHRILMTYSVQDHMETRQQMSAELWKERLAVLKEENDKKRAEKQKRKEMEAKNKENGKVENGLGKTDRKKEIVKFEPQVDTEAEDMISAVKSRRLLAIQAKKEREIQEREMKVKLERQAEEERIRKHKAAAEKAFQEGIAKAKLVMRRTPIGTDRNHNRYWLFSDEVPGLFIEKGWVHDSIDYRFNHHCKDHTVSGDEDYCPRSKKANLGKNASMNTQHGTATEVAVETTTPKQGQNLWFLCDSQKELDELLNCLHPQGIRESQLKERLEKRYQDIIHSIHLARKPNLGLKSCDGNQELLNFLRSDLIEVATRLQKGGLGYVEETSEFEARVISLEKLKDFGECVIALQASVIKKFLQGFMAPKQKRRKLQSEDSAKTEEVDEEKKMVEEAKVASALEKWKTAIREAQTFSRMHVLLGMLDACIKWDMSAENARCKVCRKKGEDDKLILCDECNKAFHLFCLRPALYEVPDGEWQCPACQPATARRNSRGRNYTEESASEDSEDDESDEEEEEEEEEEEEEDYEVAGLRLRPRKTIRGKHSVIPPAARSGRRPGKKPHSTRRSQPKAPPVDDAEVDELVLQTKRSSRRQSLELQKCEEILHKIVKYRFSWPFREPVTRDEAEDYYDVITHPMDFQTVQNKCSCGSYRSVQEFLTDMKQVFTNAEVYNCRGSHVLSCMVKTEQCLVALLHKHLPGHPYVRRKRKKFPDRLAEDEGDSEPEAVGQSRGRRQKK

protein kinases (human kinome) (Homo sapiens, UniProt P06493), sequence (P06493 whole entry): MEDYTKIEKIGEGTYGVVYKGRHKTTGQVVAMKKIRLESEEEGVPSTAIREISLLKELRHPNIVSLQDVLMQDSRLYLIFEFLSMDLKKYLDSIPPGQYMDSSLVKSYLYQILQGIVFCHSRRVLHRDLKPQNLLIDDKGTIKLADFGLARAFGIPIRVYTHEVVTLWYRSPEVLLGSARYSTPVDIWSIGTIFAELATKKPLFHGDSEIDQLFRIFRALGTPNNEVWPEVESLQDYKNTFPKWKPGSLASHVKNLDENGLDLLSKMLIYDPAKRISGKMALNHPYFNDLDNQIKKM

With Cc1ncsc1-c1ccc([C@H](C)NC(=O)[C@@H]2C[C@@H](O)CN2C(=O)[C@@H](NC(=O)CCCCCN2CCN(c3ccc(Nc4ncc5scc(-c6cccc(NS(C)(=O)=O)c6)c5n4)cc3)CC2)C(C)(C)C)cc1 [RSS0680, (2S,4R)-1-((S)-3,3-Dimethyl-2-(6-(4-(4-((7-(3-(methylsulfonamido)phenyl)thieno[3,2-d]pyrimidin-2-yl)amino)phenyl)piperazin-1-yl)hexanamido)butanoyl)-4-hydroxy-N—((S)-1-(4-(4-methylthiazol-5yl)phenyl)ethyl)pyrrolidine-2-carboxamide] the logFC [1] was −0.3587, the “logFC CDK1” value [1] was −0.3587 and the logFC [2] was −0.4061.
